Results taken from patent US11807634B2, “Cyclopropyl dihydroquinoline sulfonamide compounds” (AMGEN INC., priority 2020, dated 2023).

test system: CYP3A4; assay: Human CYP 3A4 induction assay (mRNA, cryopreserved human hepatocytes); format: in vitro ADME; conditions: human hepatocytes, 10 uM test compound, 72 hours, mRNA, percent of control (rifampin positive control)
Description: Human CYP 3A4 Induction Assay
Cryopreserved human hepatocytes were seeded in 96-well collagen coated plates at 70,000 cells per well in hepatocyte plating media (HPM, final concentrations: 1× Dulbecco's Modified Eagle's Medium, 0.1 μM dexamethasone, 10% fetal bovine serum, 1× ITS, 1×PSG) followed by incubation at 37° C. under 5% CO2 and 90% relative humidity for 2 days to allow hepatocytes to form a confluent layer. On Day 3, hepatocytes were treated with either test compound or rifampin (20 μM, positive control for CYP3A induction) prepared in hepatocyte incubation media ((HIM, final concentrations: 1× William's Medium E, 0.1 μM dexamethasone, 1×ITS, 1×PSG). Treatment was performed for 72 hours with either 2 concentrations (2 μM or 10 μM) or a range of concentrations (0.001 μM to 100 μM) of the test compound to obtain full dose-response curve. Fresh media containing the relevant concentrations of the test compound was replaced every day until the samples were processed. After 72 hours of incubation, samples were processed for mRNA analysis using bDNA technology using manufacturer's instructions (Affymetrix, Fremont, Calif.). Cell viability was tested at the end of the experiment using MTT assay kit (Roche Diagnostics, Basel, Switzerland). Data was analyzed and presented as percent of control (POC) and Emax and EC50 obtained when appropriate according to guidance from Center for Drug Evaluation and Research (CDER), 2006, Guidance for Industry, Drug Interaction Studies—Study Design, Data Analysis, and Implications for Dosing and Labeling.
Cryopreserved human hepatocytes were seeded in 96-well collagen coated plates at 70,000 cells per well in hepatocyte plating media (HPM, final concentrations: 1× Dulbecco's Modified Eagle's Medium, 0.1 μM dexamethasone, 10% fetal bovine serum, 1×ITS, 1×PSG) followed by incubation at 37° C. under 5% CO2 and 90% relative humidity for 2 days to allow hepatocytes to form a confluent layer. On Day 3, hepatocytes were treated with either test compound or rifampin (20 μM, positive control for CYP3A induction) prepared in hepatocyte incubation media ((HIM, final concentrations: 1× William's Medium E, 0.1 μM dexamethasone, 1×ITS, 1×PSG). Treatment was performed for 72 hours with either 2 concentrations (2 μM or 10 μM) or a range of concentrations (0.001 μM to 100 μM) of the test compound to obtain full dose-response curve. Fresh media containing the relevant concentrations of the test compound was replaced every day until the samples were processed. After 72 hours of incubation, samples were processed for mRNA analysis using bDNA technology using manufacturer's instructions (Affymetrix, Fremont, Calif.). Cell viability was tested at the end of the experiment using MTT assay kit (Roche Diagnostics, Basel, Switzerland). Data was analyzed and presented as percent of control (POC) and Emax and EC50 obtained when appropriate, as described in Halladay, J. et al, 2012, An “all-inclusive” 96-well cytochrome P450 induction method: Measuring enzyme activity, mRNA levels, protein levels, and cytotoxicity from one well using cryopreserved human hepatocytes, Pharmacological and Toxicological Methods, 66:270-275.
The cytochrome P450 (CYP) is a well-known superfamily of enzymes that are responsible for the oxidative and reductive metabolic transformation of medications used in clinical practice. In addition, the CYP enzymes are commonly associated with causing many clinically relevant drug-drug interactions. Of the CYP enzymes, CYP3A4 is not only the most prevalent CYP enzyme in the liver and intestine, but is responsible for metabolism and elimination of approximately 50% of marketed drugs. In addition, CYP3A4 activity can be induced (or increased) or inhibited (decreased) in response to administration of certain drugs, thereby affecting concentrations of their own or certain concomitant drugs present in the body. […]

In order of rising “CYP3A4 mRNA Induct Hu 10 uM POC” value:
1. COc1cc([C@@H]2C[C@H]2C(F)(F)F)c(Cl)cc1-n1c(=O)ccc2cc(S(=O)(=O)Nc3ccon3)ccc21 (atropisomer, axis not shown; (P)) [Example 18, (P)-1-(5-chloro-2-methoxy-4-((1R,2R)-2-(trifluoromethyl)cyclopropyl)phenyl)-N-(isoxazol-3-yl)-2-oxo-1,2-dihydroquinoline-6-sulfonamide]  9.92%
2. COc1cc([C@@H]2C[C@H]2C(F)(F)F)c(F)cc1-n1c(=O)ccc2cc(S(=O)(=O)Nc3ncns3)ccc21 (atropisomer, axis not shown; (P)) [Example 34, (P)-1-(5-fluoro-2-methoxy-4-((1R,2R)-2-(trifluoromethyl)cyclopropyl)phenyl)-2-oxo-N-(1,2,4-thiadiazol-5-yl)-1,2-dihydroquinoline-6-sulfonamide]  12.69%
3. COc1cc([C@@H]2C[C@H]2C(F)(F)F)c(C)cc1-n1c(=O)ccc2cc(S(=O)(=O)Nc3ncccn3)ccc21 (atropisomer, axis not shown; (P)) [Example 28, (P)-1-(2-methoxy-5-methyl-4-((1R,2R)-2-(trifluoromethyl)cyclopropyl)phenyl)-2-oxo-N-(pyrimidin-2-yl)-1,2-dihydroquinoline-6-sulfonamide]  23.36%
4. COc1cc([C@@H]2C[C@H]2C(F)(F)F)c(F)cc1-n1c(=O)cc(F)c2cc(S(=O)(=O)Nc3ccon3)ccc21 (atropisomer, axis not shown; (P)) [Example 44, (P)-4-fluoro-1-(5-fluoro-2-methoxy-4-((1R,2R)-2-(trifluoromethyl)cyclopropyl)phenyl)-N-(isoxazol-3-yl)-2-oxo-1,2-dihydroquinoline-6-sulfonamide]  26.89%
5. COc1cc([C@@H]2C[C@H]2C(F)(F)F)ccc1-n1c(=O)ccc2cc(S(=O)(=O)Nc3ccon3)ccc21 (atropisomer, axis not shown; (P)) [Example 38, (P)-N-(isoxazol-3-yl)-1-(2-methoxy-4-((1R,2R)-2-(trifluoromethyl)cyclopropyl)phenyl)-2-oxo-1,2-dihydroquinoline-6-sulfonamide]  29.06%
6. COc1cc([C@H]2C[C@@H]2C(F)(F)F)c(Cl)cc1-n1c(=O)ccc2cc(S(=O)(=O)Nc3ncccn3)ccc21 (atropisomer, axis not shown; (P)) [Example 12, (P)-1-(5-chloro-2-methoxy-4-((1S,2S)-2-(trifluoromethyl)cyclopropyl)phenyl)-2-oxo-N-(pyrimidin-2-yl)-1,2-dihydroquinoline-6-sulfonamide]  29.85%
7. COc1cc([C@H]2C[C@@H]2C(F)(F)F)c(F)cc1-n1c(=O)ccc2cc(S(=O)(=O)Nc3ncccn3)ccc21 (atropisomer, axis not shown; (P)) [Example 21, (P)-1-(5-fluoro-2-methoxy-4-((1S,2S)-2-(trifluoromethyl)cyclopropyl)phenyl)-2-oxo-N-(pyrimidin-2-yl)-1,2-dihydroquinoline-6-sulfonamide]  34.81%
8. COc1cc([C@H]2C[C@@H]2c2ccccc2)c(F)cc1-n1c(=O)ccc2cc(S(=O)(=O)Nc3ccon3)ccc21 (atropisomer, axis not shown; (P)) [Example 9, (P)-1-(5-fluoro-2-methoxy-4-((1S,2S)-2-phenylcyclopropyl)phenyl)-N-(isoxazol-3-yl)-2-oxo-1,2-dihydroquinoline-6-sulfonamide]  37.165%
9. COc1cc([C@H]2C[C@@H]2C(F)(F)F)ccc1-n1c(=O)ccc2cc(S(=O)(=O)Nc3ccon3)ccc21 (atropisomer, axis not shown; (P)) [Example 39, (P)-N-(isoxazol-3-yl)-1-(2-methoxy-4-((1S,2S)-2-(trifluoromethyl)cyclopropyl)phenyl)-2-oxo-1,2-dihydroquinoline-6-sulfonamide]  38.35%
10. COc1cc([C@@H]2C[C@H]2C(F)(F)F)c(F)cc1-n1c(=O)ccc2cc(S(=O)(=O)Nc3ccon3)ccc21 (atropisomer, axis not shown; (P)) [Example 5, (P)-1-(5-fluoro-2-methoxy-4-((1R,2R)-2-(trifluoromethyl)cyclopropyl)phenyl)-N-(isoxazol-3-yl)-2-oxo-1,2-dihydroquinoline-6-sulfonamide]  41.96%
11. COc1cc([C@@H]2C[C@H]2C(F)(F)F)c(F)cc1-n1c(=O)ccc2cc(S(=O)(=O)Nc3ncccn3)ccc21 (atropisomer, axis not shown; (P)) [Example 20, (P)-1-(5-fluoro-2-methoxy-4-((1R,2R)-2-(trifluoromethyl)cyclopropyl)phenyl)-2-oxo-N-(pyrimidin-2-yl)-1,2-dihydroquinoline-6-sulfonamide]  67.47%
12. COc1cc(C2CC2)c(F)cc1-n1c(=O)ccc2cc(S(=O)(=O)Nc3ccon3)ccc21 [A, 1-(4-cyclopropyl-5-fluoro-2-methoxyphenyl)-N-(isoxazol-3-yl)-2-oxo-1,2-dihydroquinoline-6-sulfonamide, reference compound]  84.31%
13. COc1cc(C2(C(F)(F)F)CC2)c(F)cc1-n1c(=O)ccc2cc(S(=O)(=O)Nc3ncccn3)ccc21 (atropisomer, axis not shown; (P)) [Example 23, (P)-1-(5-fluoro-2-methoxy-4-(1-(trifluoromethyl)cyclopropyl)phenyl)-2-oxo-N-(pyrimidin-2-yl)-1,2-dihydroquinoline-6-sulfonamide]  85.95%
14. COc1cc(C2(C(F)(F)F)CC2)c(Cl)cc1-n1c(=O)ccc2cc(S(=O)(=O)Nc3ncccn3)ccc21 (atropisomer, axis not shown; (P)) [Example 25, (P)-1-(5-chloro-2-methoxy-4-(1-(trifluoromethyl)cyclopropyl)phenyl)-2-oxo-N-(pyrimidin-2-yl)-1,2-dihydroquinoline-6-sulfonamide]  88.68%
15. COc1cc([C@H]2C[C@@H]2C(F)(F)F)c(F)cc1-n1c(=O)ccc2cc(S(=O)(=O)Nc3ncco3)ccc21 (atropisomer, axis not shown; (P)) [Example 36, (P)-1-(5-fluoro-2-methoxy-4-((1S,2S)-2-(trifluoromethyl)cyclopropyl)phenyl)-N-(oxazol-2-yl)-2-oxo-1,2-dihydroquinoline-6-sulfonamide]  102.8%
